In PubChem BioAssay AID1963854 (Molecular Pharmacology Branch, DTP, NCI, 2024) one finds viability, T/C and IC50 data, which are given here for five compounds.

This assay has as its system 186277-243-T-J2-PDC complex spheroid viability. The experiment in a line: Anticancer human tumor 186277-243-T-J2-PDC patient-derived colon adenocarcinoma cell line growth inhibition [POLQ]. The conditions noted are these: for viability, T/C: stronger effect = lower value. The procedure: Multicellular complex tumor spheroid response to Polymerase (POL) inhibitors (novobiocin, ART-558, RP6685) in combination with a variety of drugs and investigational agents in selected tumor cell lines
The POL inhibitors (novobiocin, ART-558, and RP6685) were evaluated both individually and in combination with standard of care and investigational anticancer small molecules within a complex spheroid model of solid tumors. . Complex spheroids include a stromal component modeled by human endothelial cells (HUVEC) and fibroblasts modeled by human mesenchymal stem cells (MSCs). The concentration ranges selected for each drug and investigational agent were based upon clinically achievable concentrations if the clinical Cmax of the agent was known.
Compounds. The drugs and investigational agents: novobiocin (NSC847541), ART-558 (NSC835418), RP-6685 (NSC848927), peposertib (NSC802822), ceralasertib (NSC780249), elimusertib (NSC800525), camonsertib (NSC841442), AZD-1390 (NSC803789), olaparib (NSC753686), talazoparib (NSC767125), rucaparib (NSC756644), sotorasib (NSC818433), MRTX-1133 (NSC836407), SN-38 (NSC673596), topotecan (NSC609699), epotoside (NSC141540), doxorubicin (NSC123127), gemcitabine (NSC613327), 5-fluorouracil (NSC19893), paclitaxel (NSC125973), vemurafenib (NSC761431), MSA-2 (NSC828583), SN-011 (NSC837082), adavosertib (NSC754352), prexasertib (NSC758257), carboplatin (NSC241240) and oxaliplatin (NSC266046), were obtained from the National Cancer Institute (NCI) Developmental Therapeutics Program Chemical Repository (21). The FDA-approved anticancer drug set is available from the Developmental Therapeutics Program at https://dtp.cancer.gov/organization/dscb/obtaining/. […] The stock solutions were prepared in dimethyl sulfoxide (DMSO, Sigma-Aldrich, St. Louis, MO, cat. D2650), except for the platinum compounds which were prepared in saline (Quality Biological, Gaithersburg, MD, cat. 114-055-101), at 800-fold the tested concentration and stored at -70 degrees C prior to their use. All drugs and investigational agents were tested over a range starting from a high concentration at or near the clinical Cmax and decreasing in half-log increments. If the clinical Cmax for an agent had not been determined, the highest concentration tested was 10 microM, except for SN-38, which was tested at a high concentration of 1 microM.
Cell Culture. All cells were maintained in an incubator at 37 degrees C and 5% CO2 with 95% humidity. The PDC lines were cultured according to standard operating procedures established by the NCI PDMR (https://pdmr.cancer.gov). Table 3 of the manuscript, lists the cell lines along with the number of the three cell types plated to form the mct-spheroids and media for tumor cell growth. After thawing, all PDC lines, except 997537-175-T-J1-PDC and 415267-285-R-J2-PDC, were cultured in Matrigel-coated flasks prepared with a working solution of 1X Ham's F-12 nutrient mix, without supplementation (Thermo Fisher Scientific, cat. 11765054), 100 U/mL penicillin-streptomycin (Thermo Fisher Scientific, cat. 15140122), and 2.5% Matrigel (Corning Inc., Corning, NY, cat. 354248) for the first three passages. The two PDC lines 997537-175-T-J1-PDC and 415267-285-R-J2-PDC were cultured on uncoated flasks. The 857933-349-R-J2-PDC line was cultured in 6C/Colon 1B media containing advanced DMEM/F-12 (Thermo Fisher Scientific, cat. 12634028), 10 mM HEPES (Thermo Fisher Scientific, cat. 15630080), 1X GlutaMAX supplement (Thermo Fisher Scientific, cat. 35050061), 0.1 mg/mL primocin (InvivoGen, San Diego, CA, cat. ant-pm-2), 10% defined fetal bovine serum, heat inactivated (HyClone Laboratories Inc., Logan, UT, cat. SH30070.03HI), 50% L-WRN conditioned media (ATCC, cat. CRL-3276), 1.25 mM N-Acetyl-L-cysteine (Sigma-Aldrich, cat. A9165), 10 mM nicotinamide (Sigma-Aldrich, cat. N0636), 1X B-27 supplement (Thermo Fisher Scientific, cat. 17504044), 1X N-2 supplement (Thermo Fisher Scientific, cat. […]

[1] abbreviates: curve of first compound, second compound 0.0316 µM.
[2] abbreviates: curve of first compound, second compound 0.1 µM.
Setting [3] is: curve of first compound, second compound 0.316 µM.
[4] abbreviates: curve of first compound, second compound 1 µM.
[5] abbreviates: curve of first compound, second compound 3.16 µM.
The mark [6] stands for this setting: curve of first compound, second compound 10 µM.
[7] abbreviates: second compound 0.0316 µM, first compound 0.0316 µM.
Where [8] appears, read: second compound 0.0316 µM, first compound 0.1 µM.
Setting [9] is: second compound 0.0316 µM, first compound 0.316 µM.
[10] abbreviates: second compound 0.0316 µM, first compound 1 µM.
[11] abbreviates: second compound 0.0316 µM, first compound 3.16 µM.
Where [12] appears, read: second compound 0.0316 µM, first compound 10 µM.
The mark [13] stands for this setting: second compound 0.1 µM, first compound 0.0316 µM.
Setting [14] is: second compound 0.1 µM, first compound 0.1 µM.
Setting [15] is: second compound 0.1 µM, first compound 0.316 µM.
Setting [16] is: second compound 0.1 µM, first compound 1 µM.
Setting [17] is: second compound 0.1 µM, first compound 3.16 µM.
The mark [18] stands for this setting: second compound 0.1 µM, first compound 10 µM.
The mark [19] stands for this setting: second compound 0.316 µM, first compound 0.0316 µM.
[20] abbreviates: second compound 0.316 µM, first compound 0.1 µM.
[21] abbreviates: second compound 0.316 µM, first compound 0.316 µM.
Setting [22] is: second compound 0.316 µM, first compound 1 µM.
The mark [23] stands for this setting: second compound 0.316 µM, first compound 3.16 µM.
Setting [24] is: second compound 0.316 µM, first compound 10 µM.
The mark [25] stands for this setting: second compound 1 µM, first compound 0.0316 µM.
Setting [26] is: second compound 1 µM, first compound 0.1 µM.
The mark [27] stands for this setting: second compound 1 µM, first compound 0.316 µM.
Where [28] appears, read: second compound 1 µM, first compound 1 µM.
Setting [29] is: second compound 1 µM, first compound 3.16 µM.
Where [30] appears, read: second compound 1 µM, first compound 10 µM.
The mark [31] stands for this setting: second compound 3.16 µM, first compound 0.0316 µM.
Where [32] appears, read: second compound 3.16 µM, first compound 0.1 µM.
Where [33] appears, read: second compound 3.16 µM, first compound 0.316 µM.
The mark [34] stands for this setting: second compound 3.16 µM, first compound 1 µM.
The mark [35] stands for this setting: second compound 3.16 µM, first compound 3.16 µM.
[36] abbreviates: second compound 3.16 µM, first compound 10 µM.
Where [37] appears, read: second compound 10 µM, first compound 0.0316 µM.
The mark [38] stands for this setting: second compound 10 µM, first compound 0.1 µM.
[39] abbreviates: second compound 10 µM, first compound 0.316 µM.
[40] abbreviates: second compound 10 µM, first compound 1 µM.
Where [41] appears, read: second compound 10 µM, first compound 3.16 µM.
[42] abbreviates: second compound 10 µM, first compound 10 µM.

Where “and” joins values, the source holds several entries; their conditions need not be identical. Equal values may be shown once. Some results are limits rather than exact numbers.
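Further: spheroids exposed to compounds for seven days.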

As usually defined, the viability, T/C is the result in the treated group divided by that in the control group, in per cent. What is called IC50 is the point on the concentration scale where inhibition reaches its midpoint. For the compound `COc1cccc(OCCCN)c1-c1cc(Nc2cnc(C#N)cn2)n[nH]1`, the viability, T/C (compound 0.01 µM) was 5.26% and 13.4% and 12.2%; the viability, T/C (compound 0.0316 µM) was 4.75% and 10.6% and 9.65%; the viability, T/C (compound 0.1 µM) is 4.55% and 9.76% and 10.4%; the viability, T/C (compound 0.316 µM) is 4.05% and 9.54% and 9.26%; the viability, T/C (compound 1 µM) is 5.58% and 9.9% and 9.33%. In addition, the IC50 (curve of compound) is less than 3.16 nM.
As to `C#Cc1c(F)ccc2cc(O)cc(-c3ncc4c(N5CC6CCC(C5)N6)nc(OCC56CCCN5CC(F)C6)nc4c3F)c12` (centres undefined), the viability, T/C by setting is: (compound 0.0316 µM) 85.1% and 95.6% and 68.7%; (compound 0.1 µM) 53.8% and 92.9% and 36.9%; (compound 0.316 µM) 20.1% and 56% and 19.9%; (compound 1 µM) 12% and 28% and 9.47%; (compound 3.16 µM) 7.06% and 18.8% and 5.67%; (compound 10 µM) 5.14% and 11.6% and 4.6%. Moreover, under “curve of compound”, the IC50 was 113 nM and 427 nM and 62.6 nM.
As for `COc1cc(C2c3cc4c(cc3C(OC3OC5COC(C)OC5C(O)C3O)C3COC(=O)C23)OCO4)cc(OC)c1O` (centres undefined) + Cc1cccc(N(C)C(=O)C2C(O)CCN2c2nc(C)cc(C(F)(F)F)c2C#N)c1, the IC50 runs as follows: under setting [1], 1030 nM; under setting [2], 890 nM; under setting [3], 1070 nM; under setting [4], 976 nM; under setting [5], 749 nM; under setting [6], 528 nM. Moreover, the viability, T/C was 102% under setting [7]; 104% under setting [8]; 79.3% under setting [9]; 48.8% under setting [10]; 30.6% under setting [11]; 14.3% under setting [12]. Besides, the viability, T/C reads like this: under setting [13], 106%; under setting [14], 117%; under setting [15], 76%; under setting [16], 47.5%; under setting [17], 29.2%; under setting [18], 14.4%. Further, the viability, T/C runs as follows: under setting [19], 105%; under setting [20], 99.2%; under setting [21], 80.5%; under setting [22], 48.4%; under setting [23], 31.7%; under setting [24], 14.5%. In addition, the viability, T/C runs as follows: under setting [25], 93.8%; under setting [26], 115%; under setting [27], 80.7%; under setting [28], 46%; under setting [29], 36.1%; under setting [30], 12.7%. In addition, the viability, T/C runs as follows: under setting [31], 105%; under setting [32], 124%; under setting [33], 66.7%; under setting [34], 46.6%; under setting [35], 27.2%; under setting [36], 13.4%. The viability, T/C by setting is: under setting [37], 99.6%; under setting [38], 106%; under setting [39], 57.2%; under setting [40], 37.6%; under setting [41], 23.3%; under setting [42], 12.2%.
Consider `Nc1ccn(C2OC(CO)C(O)C2(F)F)c(=O)n1` (centres undefined), for which the viability, T/C by setting is: (compound 0.0316 µM) 7.08% and 13.1% and 7.05%; (compound 0.1 µM) 6.01% and 12.5% and 5.9%; (compound 0.316 µM) 7.05% and 13.8% and 6.01%; (compound 1 µM) 8.16% and 14.3% and 6.86%; (compound 3.16 µM) 7.56% and 13.9% and 6.67%; (compound 10 µM) 6.46% and 13.6% and 5.49%. In addition, the IC50 (curve of compound) was less than 31.6 nM.
As to `COc1cc2cc(C(=O)CCC(=O)O)sc2cc1OC` + Cc1cccc(N(C)C(=O)C2C(O)CCN2c2nc(C)cc(C(F)(F)F)c2C#N)c1, the concentration for half-maximal inhibition (IC50) by setting is: under setting [1], more than 10000 nM; under setting [2], more than 10000 nM; under setting [3], more than 10000 nM; under setting [4], more than 10000 nM; under setting [5], more than 10000 nM; under setting [6], more than 10000 nM. Moreover, the viability, T/C by setting is: under setting [7], 97.6%; under setting [8], 87.7%; under setting [9], 95%; under setting [10], 82.1%; under setting [11], 111%; under setting [12], 91.6%. Besides, the viability, T/C under setting [13] is 88.8%; the viability, T/C under setting [14] was 89.1%; the viability, T/C under setting [15] was 90.5%; the viability, T/C under setting [16] was 99.7%; the viability, T/C under setting [17] is 105%; the viability, T/C under setting [18] was 99.2%. Also, the viability, T/C by setting is: under setting [19], 101%; under setting [20], 91.7%; under setting [21], 96.6%; under setting [22], 98.1%; under setting [23], 93.5%; under setting [24], 103%. Further, the viability, T/C reads like this: under setting [25], 93.2%; under setting [26], 93.5%; under setting [27], 102%; under setting [28], 109%; under setting [29], 101%; under setting [30], 113%. Moreover, the viability, T/C is 106% under setting [31]; 112% under setting [32]; 92.4% under setting [33]; 99.4% under setting [34]; 118% under setting [35]; 91.7% under setting [36]. For the same compound, the viability, T/C under setting [37] is 107%; the viability, T/C under setting [38] was 109%; the viability, T/C under setting [39] is 112%; the viability, T/C under setting [40] was 101%; the viability, T/C under setting [41] is 93.9%; the viability, T/C under setting [42] is 84.4%.
